Legend:
Format in all cases: physicochemical
[1] = DARinv kinetic measurement, tetrazines with dienophile 28 (photometry at 520 nm); conditions: second order
Protocol: (§1) Exploratory kinetic DARinv measurements for the produced dienes and dienophiles show the expected broad reaction behavior.
(§2) Legend: rate constants for the reaction for the reaction DARinv of dienes with dienophiles in liter mol^−1s^−1; n.d. means not yet measured. n.d(+) means: reaction is carried out, however, is too slow for the measurements, DAR adduct is characterized.
(§3) The conduction is very simple since the tetrazines have an absorption maximum of sufficient intensity at 520 nm whose reduction can be very well traced by means of photometry. The kinetic analysis supplies a rate law of second order.

[2] = DARinv kinetic measurement, tetrazines with dienophile 26; conditions: second order
Protocol: as §1, §2, §3

[3] = DARinv kinetic measurement, tetrazines with dienophile 27
Protocol: as §1, §2, §3

[4] = DARinv kinetic measurement, tetrazines with dienophile 13 (Reppe-ester); conditions: second order
Protocol: as §1, §2, §3

[5] = DARinv kinetic measurement, tetrazines with dienophile 17; conditions: second order
Protocol: as §1, §2, §3

[6] = DARinv kinetic measurement, tetrazines with dienophile 16; conditions: second order
Protocol: as §1, §2, §3

[7] = DARinv kinetic measurement, tetrazines with dienophile 14; conditions: second order
Protocol: as §1, §2, §3

[8] = DARinv of a methylene-group dienophile, reaction time; conditions: room temperature; reacts very slowly
Protocol: A twofold substituted double bond as occurring in fatty acids or lipids, only reacts very slowly under normal conditions in the sense of DARinv. A methylene group, such as in the perilla alcohol, also reacts very slowly at room temperature (60 hours) in the sense of the DARinv thereby forming the expected adduct. However, as soon as a double bond is integrated within a carbocyclic ring system, it reacts much more rapidly than dienophile, the reactivity decreasing with increasing ring size, starting with the cyclopropene, and passing through a minimum with cyclohexene. In ring systems greater than seven rings, triple bonds can also react as inverse dienophiles.

[9] = with dienophile 27, lower part of Table 2 (drawing 12)
[10] = with dienophile 27, upper part of Table 2 (drawing 3)

COC(=O)c1nnc(C(=O)OC)nn1
rate constant k of DARinv [1]: 0.022 L/mol/s
rate constant k of DARinv [2]: 0.0028 L/mol/s
rate constant k of DARinv [3, 9]: 0.0048 M⁻¹ s⁻¹
rate constant k of DARinv [3, 10]: 0.0036 M⁻¹ s⁻¹
rate constant k of DARinv [4]: 3.4 M⁻¹ s⁻¹
rate constant k of DARinv [5]: 0.13 M⁻¹ s⁻¹
rate constant k of DARinv [6]: 0.44 M⁻¹ s⁻¹
rate constant k of DARinv [7]: 1.63 M⁻¹ s⁻¹

COC(=O)CNC(=O)c1nnc(C(=O)N(C)C)nn1
rate constant k of DARinv [1]: <10^−4 liter mol^−1s^−1
rate constant k of DARinv [2]: <10^−4 liter mol^−1s^−1
rate constant k of DARinv [4]: 0.014 M⁻¹ s⁻¹

C=C(C)[C@@H]1CC=C(CO)CC1 [perilla alcohol]
reaction time of DARinv forming the expected adduct [8]: 60 h

COC(=O)CNC(=O)c1nnc(C(=O)NCC(=O)OC)nn1
rate constant k of DARinv [1]: 0.028 L/mol/s
rate constant k of DARinv [2]: 0.0056 L/mol/s
rate constant k of DARinv [3, 9]: 0.0073 M⁻¹ s⁻¹
rate constant k of DARinv [3, 10]: 0.0069 M⁻¹ s⁻¹
rate constant k of DARinv [4]: 0.028 M⁻¹ s⁻¹
rate constant k of DARinv [5]: 0.18 M⁻¹ s⁻¹
rate constant k of DARinv [6]: 0.44 M⁻¹ s⁻¹
rate constant k of DARinv [7]: 0.048 M⁻¹ s⁻¹

O=C(NCCO)c1nnc(C(=O)NCCO)nn1
rate constant k of DARinv [1]: 0.023 L/mol/s
rate constant k of DARinv [2]: 0.0053 L/mol/s
rate constant k of DARinv [3, 9]: 0.008 M⁻¹ s⁻¹
rate constant k of DARinv [3, 10]: 0.0067 M⁻¹ s⁻¹
rate constant k of DARinv [4]: 0.2 M⁻¹ s⁻¹
rate constant k of DARinv [5]: 0.06 M⁻¹ s⁻¹
rate constant k of DARinv [6]: 0.11 M⁻¹ s⁻¹
rate constant k of DARinv [7]: 0.69 M⁻¹ s⁻¹
